Test results as given in patent US8029770B2 (Rutgers, The State University, priority 2003, dated 2011).
Entries after “also recorded” stand apart in the source; their conditions may differ. Where two headings read alike, the source gives them in different places. Marks after values point to notes of the source that are not given here.

How the values were obtained:
cyclin B1 = assay: Epidermal cyclin B1 in UVB-treated mice, western blot and immunohistochemistry; type: in vivo, mouse
phospho-Chk2 (Ser387) = assay: Epidermal phospho-Chk2 (Ser387) in UVB-treated mice, western blot; type: in vivo, mouse; settings: topical immediately after UVB 30 mJ/cm2; 6 hours
[1] = system: UVB-induced skin lesions in SKH-1 mice; assay: Prevention of UVB-induced skin (sunburn) lesions, sunscreen effect; type: in vivo, mouse; settings: 4.8% caffeine or 8.0% caffeine sodium benzoate (24 μmoles) in 100 mg DERMABASE 30 minutes before UVB 180 mJ/cm^2 on two consecutive days (FIG. 2)
Experimental: The areas (mm^2) and the intensity of red color in UVB-induced skin lesion were estimated semi-quantitatively 5 days after first UVB treatment. The lesion index were calculated as the lesion area multiplied by the arbitrary intensity: 0, no lesion; 1 barely detectable red lesion; 2 moderate red lesion, and 3, bright red lesion.
Outdoor occupational human exposure to UVB or a sunbathing exposure in the summer has been reported to range from 50-100 mJ/cm^2 per day (Larko, et al. (1983) Clin. Exp. Dermatol. 8:279-285; Diffey (1991) Phys. Med. Biol. 36:299-328).

[2] = system: apoptotic sunburn cells in the epidermis of SKH-1 mice; assay: UVB-induced apoptotic sunburn cells in the epidermis of SKH-1 mice after topical application; type: in vivo, mouse
Experimental: Chemicals and Animals. […] Female SKH-1 hairless mice (6 to 7 weeks old) were purchased from the Charles River Breeding Laboratories, and the animals were kept in an animal facility for at least one week before use at 7 to 8 weeks of age. Mice were given water and PURINA® Laboratory CHOW® 5001 diet from Ralston-Purina (St. […] For the analysis conducted herein, 5 mice were used per group. Treatment of Mice with UVB. […] The radiation was further calibrated with a model IL-1700 research radiometer/photometer (International Light, Newburyport, Mass.). Measurement of apoptotic sunburn cells. Identification of apoptoic sunburn cells was based morphologically on cell shrinkage and nuclear condensation due to fragmentation of the cells. […] Six hours after UVB, the animals were sacrificed and apoptotic sunburn cells in the epidermis were determined morphologically. […] Six hours after UVB, the animals were sacrificed and apoptotic sunburn cells in the epidermis were determined morphologically. […] Acetone Formulation. […] Six hours after UVB, the animals were sacrificed and apoptotic sunburn cells in the epidermis were determined morphologically. […] […] Formulations. […] Six hours after UVB the animals were sacrificed and apoptotic sunburn cells in the epidermis were determined morphologically. […] Six hours after UVB the animals were sacrificed and apoptotic sunburn cells in the epidermis were determined morphologically.

[3] = system: UVB-induced skin tumors in high risk SKH-1 mice
[4] = system: apoptotic sunburn cells in the epidermis of C57/BL/6J p53(−/−) mice; assay: UVB-induced apoptotic sunburn cells in C57/BL/6J p53(−/−) mice, topical caffeine; type: in vivo, mouse
Experimental: The time course for apoptosis was determined by utilizing morphologically distinct sunburn cells as the marker for apoptosis. […] Accordingly, studies with a C57/BL/6J mouse were performed with a 60 mJ/cm^2 dose of UVB.
Measurement of apoptotic sunburn cells. Identification of apoptoic sunburn cells was based morphologically on cell shrinkage and nuclear condensation due to fragmentation of the cells. […] The percentage of apoptotic sunburn cells in the epidermis (basal plus suprabasal layers) was calculated from the number of these cells per 100 cells counted from the entire 20 mm length of epidermis for each skin section.

[5] = Weight of mouse during topical treatment of UVB-pretreated high risk SKH-1 mice; type: in vivo
Experimental: Female SKH-1 mice were treated with 30 mJ/cm^2 of UVB twice a week for 20 weeks.

Structure (SMILES): Cn1c(=O)c2c(ncn2C)n(C)c1=O [Caffeine, caffeine]
- percent of cyclin B1 positive cells in the epidermis (cyclin B1; UVB-treated mice, frozen sections, immunohistochemical): substantially enhanced
- effect on cyclin B1 positive cells in the absence of UVB (cyclin B1; no UVB): little or no effect
- level of epidermal cyclin B1 vs UVB alone (cyclin B1; topical immediately after UVB 30 mJ/cm2, western blot): increased substantially
- UVB-induced increase in the level of phospho-Chk2 (Ser387) (phospho-Chk2 (Ser387)): inhibited
- formation of UVB-induced sunburn (skin) lesions [1]: inhibited the formation of sunburn lesions; also recorded: inhibited UVB-induced sunburn lesions
- Percent Sunburn Cells, UVB ([2]; 6.2 μmole (each) in 100 μL acetone:water (9:1) immediately after UVB 30 mJ/cm^2 and at 30 and 120 min, 6 h, mean ± S.E.): 0.64 ± 0.15%
- Percent Apoptotic Sunburn Cells ([2]; 6.2 μmole in 100 μL acetone right after UVB 30 mJ/cm^2 and at 30 and 120 min, 6 h after UVB, mean ± S.E.): 0.506 ± 0.013^a %
- Percent Sunburn Cells, UVB ([2]; 100 mg formulation (2.4% caffeine or 4.0% caffeine sodium benzoate, 12.4 μmole, in DERMABASE; or commercial product) immediately after UVB 30 mJ/cm^2, 6 h): 1.96 ± 0.20^a %
- Percent Sunburn Cells, UVB ([2]; 0.6% Caffeine in 100 mg DERMABASE immediately after UVB 30 mJ/cm^2, 6 h): 0.40 ± 0.18^a %
- Percent Sunburn Cells, UVB ([2]; 1.2% Caffeine in 100 mg DERMABASE immediately after UVB 30 mJ/cm^2, 6 h): 0.58 ± 0.12^a %
- Percent Sunburn Cells, UVB ([2]; 2.4% Caffeine in 100 mg DERMABASE immediately after UVB 30 mJ/cm^2, 6 h): 0.58 ± 0.14^a %
- Percent Sunburn Cells, UVB ([2]; 3.6% Caffeine in 100 mg DERMABASE immediately after UVB 30 mJ/cm^2, 6 h): 0.82 ± 0.10^a %
- Percent Sunburn Cells, UVB ([2]; 4.8% Caffeine in 100 mg DERMABASE immediately after UVB 30 mJ/cm^2, 6 h): 0.96 ± 0.13^a %
- enhancement of UVB-induced apoptosis in the epidermis, applied in DERMABASE ([2]; DERMABASE vehicle, equimolar amounts (Table 4)): more effective at enhancing UVB-induced apoptosis when applied to the skin in DERMABASE™ than when applied to the skin in acetone
- Percent Apoptotic Sunburn Cells ([2]; Exp-1, 6.2 μmole in acetone:water (9:1) x3 after UVB 30 mJ/cm^2, 6 h): 0.51 ± 0.01%
- Percent Apoptotic Sunburn Cells ([2]; Exp-2, 6.2 μmole in acetone:water (9:1) x3 after UVB 30 mJ/cm^2, 6 h): 0.48 ± 0.04%
- % Induction ([2]; Table 1, vs acetone group, 6.2 μmole x3 after UVB 30 mJ/cm^2, 6 h): 148%
- % Induction ([2]; Table 2, vs acetone, 6.2 μmole in acetone:water (9:1)): 205%
- % Induction ([2]; Table 3 Exp-1, 6.2 μmole): 155%
- % Induction ([2]; Table 3 Exp-2, 6.2 μmole): 129%
- % Induction ([2]; Table 4, 0.6% Caffeine in DERMABASE): 100%
- % Induction ([2]; Table 4, 1.2% Caffeine in DERMABASE): 190%
- % Induction ([2]; Table 4, 2.4% Caffeine in DERMABASE): 190%
- % Induction ([2]; Table 4, 3.6% Caffeine in DERMABASE): 270%
- % Induction ([2]; Table 5, vs DERMABASE, 100 mg formulation after UVB): 284%
- No. of large tumors (diameter > 5 mm) ([3]; week 0, 1.2% CF in DERMABASE): 0
- Tumor volume per mouse (all mice) (mm^3) ([3]; week 0, 1.2% CF in DERMABASE): 0 mm^3
- Tumor volume per tumor (mm^3) ([3]; week 0, 1.2% CF in DERMABASE): 0 mm^3
- Tumors per mouse ([3]; week 0, 1.2% CF in DERMABASE): 0
- No. of large tumors (diameter > 5 mm) ([3]; week 0, 3.6% CF in DERMABASE): 0
- Tumor volume per mouse (all mice) (mm^3) ([3]; week 0, 3.6% CF in DERMABASE): 0 mm^3
- Tumor volume per tumor (mm^3) ([3]; week 0, 3.6% CF in DERMABASE): 0 mm^3
- Tumors per mouse ([3]; week 0, 3.6% CF in DERMABASE): 0
- No. of large tumors (diameter > 5 mm) ([3]; week 5, 1.2% CF in DERMABASE): 0
- Tumor volume per mouse (all mice) (mm^3) ([3]; week 5, 1.2% CF in DERMABASE): 0.1 ± 0.0 mm^3
- Tumor volume per tumor (mm^3) ([3]; week 5, 1.2% CF in DERMABASE): 0.5 ± 0.0 mm^3
- Tumors per mouse ([3]; week 5, 1.2% CF in DERMABASE): 0.1 ± 0.1
- No. of large tumors (diameter > 5 mm) ([3]; week 5, 3.6% CF in DERMABASE): 0
- Tumor volume per mouse (all mice) (mm^3) ([3]; week 5, 3.6% CF in DERMABASE): 0.1 ± 0.0 mm^3
- Tumor volume per tumor (mm^3) ([3]; week 5, 3.6% CF in DERMABASE): 0.5 ± 0.0 mm^3
- Tumors per mouse ([3]; week 5, 3.6% CF in DERMABASE): 0.2 ± 0.1
- No. of large tumors (diameter > 5 mm) ([3]; week 7, 1.2% CF in DERMABASE): 0
- Tumor volume per mouse (all mice) (mm^3) ([3]; week 7, 1.2% CF in DERMABASE): 0.4 ± 0.2 mm^3
- Tumor volume per tumor (mm^3) ([3]; week 7, 1.2% CF in DERMABASE): 1.3 ± 0.5 mm^3
- Tumors per mouse ([3]; week 7, 1.2% CF in DERMABASE): 0.4 ± 0.1
- No. of large tumors (diameter > 5 mm) ([3]; week 7, 3.6% CF in DERMABASE): 0
- Tumor volume per mouse (all mice) (mm^3) ([3]; week 7, 3.6% CF in DERMABASE): 0.3 ± 0.1 mm^3
- Tumor volume per tumor (mm^3) ([3]; week 7, 3.6% CF in DERMABASE): 1.3 ± 0.7 mm^3
- Tumors per mouse ([3]; week 7, 3.6% CF in DERMABASE): 0.2 ± 0.1
- No. of large tumors (diameter > 5 mm) ([3]; week 9, 1.2% CF in DERMABASE): 0
- Tumor volume per mouse (all mice) (mm^3) ([3]; week 9, 1.2% CF in DERMABASE): 2.0 ± 1.0 mm^3
- Tumor volume per tumor (mm^3) ([3]; week 9, 1.2% CF in DERMABASE): 3.3 ± 1.5 mm^3
- Tumors per mouse ([3]; week 9, 1.2% CF in DERMABASE): 0.6 ± 0.2
- No. of large tumors (diameter > 5 mm) ([3]; week 9, 3.6% CF in DERMABASE): 0
- Tumor volume per mouse (all mice) (mm^3) ([3]; week 9, 3.6% CF in DERMABASE): 0.8 ± 0.5 mm^3
- Tumor volume per tumor (mm^3) ([3]; week 9, 3.6% CF in DERMABASE): 1.9 ± 1.1 mm^3
- Tumors per mouse ([3]; week 9, 3.6% CF in DERMABASE): 0.4 ± 0.1
- No. of large tumors (diameter > 5 mm) ([3]; week 11, 1.2% CF in DERMABASE): 0
- Tumor volume per mouse (all mice) (mm^3) ([3]; week 11, 1.2% CF in DERMABASE): 3.7 ± 1.4 mm^3
- Tumor volume per tumor (mm^3) ([3]; week 11, 1.2% CF in DERMABASE): 3.5 ± 1.0 mm^3
- Tumors per mouse ([3]; week 11, 1.2% CF in DERMABASE): 1.1 ± 0.3
- No. of large tumors (diameter > 5 mm) ([3]; week 11, 3.6% CF in DERMABASE): 0
- Tumor volume per mouse (all mice) (mm^3) ([3]; week 11, 3.6% CF in DERMABASE): 1.6 ± 0.6 mm^3
- Tumor volume per tumor (mm^3) ([3]; week 11, 3.6% CF in DERMABASE): 1.3 ± 0.4 mm^3
- Tumors per mouse ([3]; week 11, 3.6% CF in DERMABASE): 1.2 ± 0.3
- enhancement of UVB-induced increase in apoptotic sunburn cells ([4]; female p53(−/−), UVB 60 mJ/cm^2, 6 hours after UVB): 563%
- effect on apoptosis in non-UVB-treated epidermis ([4]; male p53(−/−), no UVB): no effect
- Weight of mouse ([5]; week 0, 1.2% CF in DERMABASE): 30.3 ± 0.5 g
- Weight of mouse ([5]; week 0, 3.6% CF in DERMABASE): 30.5 ± 0.6 g
- Weight of mouse ([5]; week 5, 1.2% CF in DERMABASE): 29.6 ± 0.5 g
- Weight of mouse ([5]; week 5, 3.6% CF in DERMABASE): 30.0 ± 0.5 g
- Weight of mouse ([5]; week 7, 1.2% CF in DERMABASE): 29.5 ± 0.5 g
- Weight of mouse ([5]; week 7, 3.6% CF in DERMABASE): 29.6 ± 0.5 g
- Weight of mouse ([5]; week 9, 1.2% CF in DERMABASE): 30.0 ± 0.4 g
- Weight of mouse ([5]; week 9, 3.6% CF in DERMABASE): 29.8 ± 0.5 g
- Weight of mouse ([5]; week 11, 1.2% CF in DERMABASE): 30.0 ± 0.5 g
- Weight of mouse ([5]; week 11, 3.6% CF in DERMABASE): 30.1 ± 0.5 g
